Reference: patent US20060111381A1, “Amidine compounds” (priority 2002, published 2006)
“And” between values parts separate entries of the source, which are not always exact repeats. Equal entries are not always repeated. Structures can show the parent of a compound that is named as a salt.

Legend:
ICR mice [1] = assay: Deaths and adverse signs observed in writhing-study mice; type: in vivo; conditions: 128 mg/kg IP
Experimental: (§1) Testing on compound KRS-6-48 was carried out under contract by MDS Services—Taiwan Ltd. KRS-6-48 was evaluated for possible analgesic activity in the phenylquinone-induced writhing model in mice (Siegmund et al, 1957). A serial 2-fold dosage variance was used in the test, from 128 mg/kg to 1 mg/kg (8 doses in total). Groups of 3 male or female ICR mice weighing 22±2 g were employed. Variant doses (1, 2, 4, 8, 16, 32, 64 and 128 mg/kg) of test substances were administered intraperitoneally (IP). A vehicle of 2% Tween 80 in 0.9% NaCl was used for the intraperitoneal injection. The control group received vehicle alone. […] A reduction in the number of writhes by 50 percent or more (≧50%) relative to the vehicle-treated group indicated possible analgesic activity.
(§2) In each case, a serial 2-fold dosage variance was used in the test, from 128 mg/kg to 1 mg/kg (8 doses in total). Groups of 3 male or female ICR mice weighing 22±2 g were employed. Variant doses (1, 2, 4, 8, 16, 32, 64 and 128 mg/kg) of test substances were administered intraperitoneally (IP). A vehicle of 2% Tween 80 in 0.9% NaCl was used for the intraperitoneal injection. The control group received vehicle alone. […] A reduction in the number of writhes by 50 percent or more (≧50%) relative to the vehicle-treated group indicated possible analgesic activity.

human μ-opiate receptor = biological target: T1, human μ-opiate receptor (Homo sapiens, UniProt P35372); assay: In vitro opiate receptor radioligand binding assay (MDS 260410); conditions: test compound 10 μM, read-out: Percentage Inhibition of Radioligand Binding
T1 construct: purchased MDS Pharma Services 260410
T1 sequence (P35372 whole entry): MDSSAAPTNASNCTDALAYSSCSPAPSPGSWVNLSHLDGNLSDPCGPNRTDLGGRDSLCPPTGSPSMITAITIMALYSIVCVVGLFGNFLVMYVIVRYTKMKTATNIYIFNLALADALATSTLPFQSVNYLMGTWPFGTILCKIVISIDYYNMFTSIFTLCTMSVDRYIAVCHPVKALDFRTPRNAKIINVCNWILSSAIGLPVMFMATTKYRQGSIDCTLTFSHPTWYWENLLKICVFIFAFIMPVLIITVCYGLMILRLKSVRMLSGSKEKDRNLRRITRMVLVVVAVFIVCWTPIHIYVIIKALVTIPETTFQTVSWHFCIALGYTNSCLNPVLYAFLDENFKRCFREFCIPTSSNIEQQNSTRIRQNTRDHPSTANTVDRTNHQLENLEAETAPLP
Experimental: (§3) To characterise the target specificity of the compounds, KRS-6-41, KRS-6-48 and KRS-6-51 were tested at a concentration of 10 μM for their ability to inhibit the binding of a radioligand to human δ-, κ-, or μ-opiate receptors in vitro using commercially available assays (MDS Pharma Services; assay catalogue numbers 260110, 260210 and 260410 respectively).

human δ-opiate receptor = biological target: T2, human δ-opiate receptor (Homo sapiens, UniProt P41143); assay: In vitro opiate receptor radioligand binding assay (MDS 260110); conditions: test compound 10 μM, read-out: Percentage Inhibition of Radioligand Binding
T2 construct: purchased MDS Pharma Services 260110
T2 sequence (P41143 whole entry): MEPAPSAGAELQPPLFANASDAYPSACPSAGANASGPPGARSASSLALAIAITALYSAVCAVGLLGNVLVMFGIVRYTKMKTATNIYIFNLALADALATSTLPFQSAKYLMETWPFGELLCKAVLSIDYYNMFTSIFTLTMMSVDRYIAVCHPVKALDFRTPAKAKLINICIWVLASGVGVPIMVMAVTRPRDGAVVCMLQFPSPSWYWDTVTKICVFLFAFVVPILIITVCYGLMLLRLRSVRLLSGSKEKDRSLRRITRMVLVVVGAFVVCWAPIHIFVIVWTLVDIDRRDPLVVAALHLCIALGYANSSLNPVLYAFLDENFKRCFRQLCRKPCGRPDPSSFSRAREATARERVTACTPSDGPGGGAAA
Experimental: as §3

human κ-opiate receptor = biological target: T3, human κ-opiate receptor (Homo sapiens, UniProt P41145); assay: In vitro opiate receptor radioligand binding assay (MDS 260210); conditions: test compound 10 μM, read-out: Percentage Inhibition of Radioligand Binding
T3 construct: purchased MDS Pharma Services 260210
T3 sequence (P41145 whole entry): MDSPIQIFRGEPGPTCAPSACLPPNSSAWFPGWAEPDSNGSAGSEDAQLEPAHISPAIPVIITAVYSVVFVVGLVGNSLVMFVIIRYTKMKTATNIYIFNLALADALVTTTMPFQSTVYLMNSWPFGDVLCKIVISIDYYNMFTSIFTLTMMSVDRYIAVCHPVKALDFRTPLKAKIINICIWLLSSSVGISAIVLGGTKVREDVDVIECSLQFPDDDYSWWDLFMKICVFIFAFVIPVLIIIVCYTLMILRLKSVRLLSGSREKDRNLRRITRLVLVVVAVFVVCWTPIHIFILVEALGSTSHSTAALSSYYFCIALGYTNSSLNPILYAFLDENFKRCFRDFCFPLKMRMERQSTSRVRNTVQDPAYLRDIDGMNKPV
Experimental: as §3

ICR mice [2] = assay: Straub tail behaviour (indicator of CNS activity) in writhing-study mice; conditions: any doses (1 to 128 mg/kg IP)
ICR mice [3] = assay: Phenylquinone-induced writhing model in mice (writhes counted in following 5-10 minute period); type: in vivo; conditions: for No. of Writhings, Individual: individual mice; for % Inhibition: relative to vehicle group
Experimental: as §1
Testing on compounds KRS-6-41, KRS-6-51, and KRS-6-71 was also carried out under contract by MDS Services—Taiwan Ltd. The study was designed to evaluate the effects of the compounds as analgesics in the phenylquinone-induced writhing assay described in detail in Example 10 (Siegmund et al, 1957).
as §2

Compound: CCC(=Nc1ccccc1)NCCCN1CC[C@]23c4c5ccc(O)c4O[C@H]2[C@@H](O)C=CC3[C@H]1C5 (stereo partly drawn) (as salt: HCl) [KRS-6-48, (5α,6α)-7,8-didehydro-4,5-epoxy-17-((N-phenylpropionamidino)-propyl)morphinan, 3,6-diol]
- melting point: 188 to 190 °C

Compound: CC(=Nc1ccccc1)NCCCN1CC[C@]23c4c5ccc(O)c4O[C@H]2[C@@H](O)C=CC3[C@H]1C5 (stereo partly drawn) [KRS-6-51, (5α,6α)-7,8-didehydro-4,5-epoxy-17-((N-phenylacetamidino)-propyl)morphinan, 3,6-diol]
- test animals exhibiting tremors and edema (ICR mice [1]): 2 of the 3
- test animals died within 15 minutes (ICR mice [1]; within 15 minutes): 21 of the 3
- inhibition at 10 µM (human μ-opiate receptor): 97%
- inhibition at 10 µM (human δ-opiate receptor): 37%
- inhibition at 10 µM (human κ-opiate receptor): 54%
- Straub tail behaviour (ICR mice [2]): None of the test animals exhibited Straub tail behaviour
- No. of Writhings, Average (ICR mice [3]; 1 mg/kg IP): 12
- No. of Writhings, Individual (ICR mice [3]; 1 mg/kg IP): 11 and 14 and 12
- % Inhibition (ICR mice [3]; 1 mg/kg IP): 20%
- No. of Writhings, Average (ICR mice [3]; 2 mg/kg IP): 11
- No. of Writhings, Individual (ICR mice [3]; 2 mg/kg IP): 18 and 9 and 7
- % Inhibition (ICR mice [3]; 2 mg/kg IP): 27%
- No. of Writhings, Average (ICR mice [3]; 4 mg/kg IP): 10
- No. of Writhings, Individual (ICR mice [3]; 4 mg/kg IP): 10 and 13 and 7
- % Inhibition (ICR mice [3]; 4 mg/kg IP): 33%
- No. of Writhings, Average (ICR mice [3]; 8 mg/kg IP): 8
- No. of Writhings, Individual (ICR mice [3]; 8 mg/kg IP): 9 and 8 (2×)
- % Inhibition (ICR mice [3]; 8 mg/kg IP): 47%
- No. of Writhings, Average (ICR mice [3]; 16 mg/kg IP): 8
- No. of Writhings, Individual (ICR mice [3]; 16 mg/kg IP): 12 and 4 and 7
- % Inhibition (ICR mice [3]; 16 mg/kg IP): 47%
- No. of Writhings, Average (ICR mice [3]; 32 mg/kg IP): 5
- No. of Writhings, Individual (ICR mice [3]; 32 mg/kg IP): 3 and 5 and 7
- % Inhibition (ICR mice [3]; 32 mg/kg IP): 67%
- No. of Writhings, Average (ICR mice [3]; 64 mg/kg IP): 0
- No. of Writhings, Individual (ICR mice [3]; 64 mg/kg IP): 0
- % Inhibition (ICR mice [3]; 64 mg/kg IP): 100%
- No. of Writhings, Individual (ICR mice [3]; 128 mg/kg IP): died and 0 (2×)
- analgesic activity in writhing model (in words) (ICR mice [3]; at doses of 64 and 32 mg/kg IP): significant activity

Compound: CCC(=Nc1ccccc1CC)NCCCN1CC[C@]23c4c5ccc(O)c4O[C@H]2[C@@H](O)C=CC3[C@H]1C5 (stereo partly drawn) [KRS-6-71, (5α,6α)-7,8-didehydro-4,5-epoxy-17-((N-(2-ethylphenyl)propionamidino)-propyl)morphinan, 3,6-diol]
- Straub tail behaviour (ICR mice [2]): None of the test animals exhibited Straub tail behaviour
- No. of Writhings, Average (ICR mice [3]; 1 mg/kg IP): 18
- No. of Writhings, Individual (ICR mice [3]; 1 mg/kg IP): 24 and 13 and 18
- % Inhibition (ICR mice [3]; 1 mg/kg IP): 22%
- No. of Writhings, Average (ICR mice [3]; 2 mg/kg IP): 14
- No. of Writhings, Individual (ICR mice [3]; 2 mg/kg IP): 2 and 12 and 18
- % Inhibition (ICR mice [3]; 2 mg/kg IP): 39%
- No. of Writhings, Average (ICR mice [3]; 4 mg/kg IP): 11
- No. of Writhings, Individual (ICR mice [3]; 4 mg/kg IP): 16 (2×) and 2
- % Inhibition (ICR mice [3]; 4 mg/kg IP): 52%
- No. of Writhings, Average (ICR mice [3]; 8 mg/kg IP): 11
- No. of Writhings, Individual (ICR mice [3]; 8 mg/kg IP): 0 and 18 and 15
- % Inhibition (ICR mice [3]; 8 mg/kg IP): 52%
- No. of Writhings, Average (ICR mice [3]; 16 mg/kg IP): 7
- No. of Writhings, Individual (ICR mice [3]; 16 mg/kg IP): 13 and 0 and 8
- % Inhibition (ICR mice [3]; 16 mg/kg IP): 70%
- No. of Writhings, Average (ICR mice [3]; 32 mg/kg IP): 7
- No. of Writhings, Individual (ICR mice [3]; 32 mg/kg IP): 6 and 0 and 15
- % Inhibition (ICR mice [3]; 32 mg/kg IP): 70%
- No. of Writhings, Average (ICR mice [3]; 64 mg/kg IP): 1
- No. of Writhings, Individual (ICR mice [3]; 64 mg/kg IP): 0 (2×) and 3
- % Inhibition (ICR mice [3]; 64 mg/kg IP): 96%
- No. of Writhings, Average (ICR mice [3]; 128 mg/kg IP): 0
- No. of Writhings, Individual (ICR mice [3]; 128 mg/kg IP): 0
- % Inhibition (ICR mice [3]; 128 mg/kg IP): 100%
- melting point: 58 to 59 °C
